Measured values from patent publication US7914769B2, “Compounds for treating human papillomavirus” (priority 2004, dated 2011).

Columns and labels:
E6 = E6 (Human papillomavirus type 16, UniProt P03126); test: E6 inhibition (IC50, assay not specified); format: biochemical
Text: In some embodiments, the interaction of a compound described herein with E6 protein can be assayed in vitro, using routine techniques. In some in vitro assays, the ability of a compound described herein to inhibit the binding of E6 protein to an E6 binding protein can be tested. For example, the E6 protein can be labeled, e.g., radiolabeled, mixed with a compound described herein, and the binding of E6 protein to a binding protein, e.g., E6BP or E6AP, can be determined. Binding efficiency can be calculated as percent input bound minus background. Other in vitro assays can involve indirect measurements of the ability of a compound described herein to inhibit the binding of E6 protein to an E6 binding protein. For example, in vitro p53 degradation experiments can be performed, e.g., as described by Crook et al. (Cell, 67:547-556 (1991)). The IC50 for binding and p53 degradation for the compounds described herein can be tabulated using routine methods.
“IC50” as used herein is the concentration of a compound that produces half-maximal inhibition of protein activity, e.g., E6 activity.

HPV E6 protein = HPV E6 protein (Human papillomavirus type 16, UniProt P03126); test: In vitro p53 degradation assay (E6 and p53 made in rabbit reticulocyte lysate)
HPV E6 protein, sequence (P03126 whole entry): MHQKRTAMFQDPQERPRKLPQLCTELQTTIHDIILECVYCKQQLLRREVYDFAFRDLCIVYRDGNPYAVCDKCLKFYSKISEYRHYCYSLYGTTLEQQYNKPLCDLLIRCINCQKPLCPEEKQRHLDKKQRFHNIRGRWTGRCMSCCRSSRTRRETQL

E6, sequence (P03126 whole entry): as above

CCN(C(=O)c1cc2ccccc2cc1O)c1ccccc1
IC50 (E6): 100 to 200 nM | IC50 (HPV E6 protein): 1000 to 2000 nM
